Usually IC50 stands for the concentration at which inhibition is half-maximal.

This passage reports IC50 results from patent US9695175B2, “Highly selective c-Met inhibitors as anticancer agents” (Crown Bioscience Inc. (Taiwan), priority 2012, dated 2017).

Assay [1] deals with c-Met protein in S114 cells (Homo sapiens (Human), UniProt P08581). Briefly: S114 cell-based ELISA, phosphorylation of c-Met protein. Conditions: 30 min compound incubation, phospho-c-Met ELISA. Here is the method: Cell-Based ELISA [Method] Use ELISA to measure the phosphorylation of c-Met protein in […] cells [Instrument] ENVISION plate reader of PerKinElmer […] [Procedure] […] cells are cultured in DMEM medium (containing 10% FBS). When cells reach 80% confluency, they are collected by trypsinization and centrifugation at 800 rpm for 5 min. The cells are re-suspended in DMEM and adjusted to a density of 500,000 cells/mL. A 96-well plate is pretreated with a solution of Firbronectin in PBS (5 μg/mL) at 100 μL per well for 2 hr. The cell suspension is split into the 96-well culture plate at 100 uL per well and incubated (37° C., 5% CO2) overnight. The capture antibody is diluted with 1/2 Tris-ammonium bicarbonate buffer (1:1000) and transferred into a 96-well absorption plate (70 μL per well) at 4° C. overnight. The solution is discarded and the plate is washed with blocking buffer, followed by adding blocking buffer (150 μL per well), and kept at room temperature for 1 hr. The medium in the 96-well culture plate is discarded and the plate is washed with DMEM (without FBS). Then 80 μL of DMEM (without FBS) and 20 μL of test compound solution at various concentrations in DMEM (without FBS) are added. The culture plate is kept in a culture incubator for 30 min (37° C., 5% CO2). The cell culture medium is discarded and the culture plate is washed with PBS, followed by adding lysis buffer (50 μL per well) and incubated at 4° C. for 20 min. The solution in the absorption plate is discarded and the plate is washed with binding buffer. To each well of the absorption plate is added binding buffer (50 μL) and lysate (40 μL) from the above culture plate; then the plate is incubated at room temperature for 2 hours. The culture medium is discarded and the plate is washed twice with binding buffer, followed by adding a solution of 1st antibody (diluted with binding buffer 1:1000, 100 μL per well) and incubated at 37° C. for 1 hr. The solution is discarded and the plate is washed twice with binding buffer. Then a solution of 2nd antibody is added (100 μL per well) and incubated at 37° C. for another hour. The medium is discarded and the plate is washed twice with binding buffer and once with PBS. To each well, 100 μL of A.B.T.S solution is added and incubated at 37° C. for 30 min. Then OD405 is analyzed on an ENVISION plate reader. This assay has a Minimum Significant Ratio (MSA) of 2-3. [Samples] All exemplified compounds and Crizotinib as the positive control [Data Analysis] Background (no cell lysate): 0.084 • Max (no test compound): 0.517 [formula] [Software] Use CBIS data analysis software to calculate IC50 values
(ELISA stands for enzyme-linked immunosorbent assay.)

The target of assay [2] is c-Met kinase (1038-1346AA) (Homo sapiens (Human), UniProt P08581). Briefly: c-Met in vitro kinase assay (Lance Ultra ULight-TK). The format is biochemical. Conditions: c-Met kinase 12.5 nM, ATP 2.5 uM, 30° C.; read-out: c-Met Enzyme IC50. Here is the method:
c-Met In Vitro Kinase Assay [Method] Use Lance@Ultra Ulight™-TK test kits from PerKinElmer to evaluate the inhibition of c-Met kinase by the compounds [Instrument] ENVISION plate reader of PerKinElmer […] Then ATP (final concentration 2.5 uM) and kinase substrate (final concentration 50 nM) are added. […] After 1 hr, the plate is read at 615 nm and 665 nm. The ratio of […] at 665 nm and 615 nm is calculated and used for the data analysis as follows. This assay has a Minimum Significant Ratio (MSA) of 2-3. [Samples] All exampled compounds and Crizotinib as the positive control [Data Analysis] Background—the ratio of 665 nm/615 nm (no enzyme):0.003285 • Max—the ratio of 665 nm/615 nm (no test compound):0.075356 [formula] [Software] Use CBIS data analysis software to calculate IC50 values

Sequence of c-Met protein in S114 cells (P08581 25-1390): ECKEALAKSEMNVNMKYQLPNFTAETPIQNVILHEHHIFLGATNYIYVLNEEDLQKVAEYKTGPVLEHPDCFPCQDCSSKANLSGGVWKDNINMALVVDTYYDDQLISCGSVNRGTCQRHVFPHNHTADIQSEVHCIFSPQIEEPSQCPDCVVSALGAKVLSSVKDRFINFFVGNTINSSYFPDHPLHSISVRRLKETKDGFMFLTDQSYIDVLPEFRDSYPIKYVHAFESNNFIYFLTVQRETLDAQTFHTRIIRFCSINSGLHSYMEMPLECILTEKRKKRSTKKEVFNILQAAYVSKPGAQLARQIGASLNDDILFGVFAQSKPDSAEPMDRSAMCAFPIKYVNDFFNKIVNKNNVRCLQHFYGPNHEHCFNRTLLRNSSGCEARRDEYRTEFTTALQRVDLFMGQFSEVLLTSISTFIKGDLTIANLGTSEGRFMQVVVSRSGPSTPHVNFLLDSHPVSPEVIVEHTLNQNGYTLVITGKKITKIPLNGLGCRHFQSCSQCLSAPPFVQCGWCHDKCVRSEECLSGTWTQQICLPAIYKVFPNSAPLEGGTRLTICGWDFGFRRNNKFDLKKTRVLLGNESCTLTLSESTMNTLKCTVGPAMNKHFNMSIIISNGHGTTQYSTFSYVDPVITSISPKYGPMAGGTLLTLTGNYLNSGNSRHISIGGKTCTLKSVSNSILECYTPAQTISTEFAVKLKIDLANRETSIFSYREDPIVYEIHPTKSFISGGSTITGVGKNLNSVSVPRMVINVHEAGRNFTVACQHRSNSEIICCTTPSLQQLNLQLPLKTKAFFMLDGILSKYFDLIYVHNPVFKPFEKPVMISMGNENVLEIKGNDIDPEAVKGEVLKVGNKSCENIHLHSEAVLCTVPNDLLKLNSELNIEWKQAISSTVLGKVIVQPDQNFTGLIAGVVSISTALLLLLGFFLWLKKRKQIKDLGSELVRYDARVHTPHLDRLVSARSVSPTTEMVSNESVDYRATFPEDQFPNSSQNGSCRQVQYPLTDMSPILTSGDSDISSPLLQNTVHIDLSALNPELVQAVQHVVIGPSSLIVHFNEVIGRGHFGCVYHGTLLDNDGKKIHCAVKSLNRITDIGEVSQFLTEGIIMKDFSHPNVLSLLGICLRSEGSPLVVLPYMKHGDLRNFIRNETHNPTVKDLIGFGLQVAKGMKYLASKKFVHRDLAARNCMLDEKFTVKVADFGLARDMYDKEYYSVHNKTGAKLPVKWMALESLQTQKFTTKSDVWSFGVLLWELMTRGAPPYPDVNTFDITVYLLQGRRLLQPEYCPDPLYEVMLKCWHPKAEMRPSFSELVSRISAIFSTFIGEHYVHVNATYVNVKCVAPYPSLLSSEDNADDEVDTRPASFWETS
Sequence of c-Met kinase (1038-1346AA) (P08581 1038-1346): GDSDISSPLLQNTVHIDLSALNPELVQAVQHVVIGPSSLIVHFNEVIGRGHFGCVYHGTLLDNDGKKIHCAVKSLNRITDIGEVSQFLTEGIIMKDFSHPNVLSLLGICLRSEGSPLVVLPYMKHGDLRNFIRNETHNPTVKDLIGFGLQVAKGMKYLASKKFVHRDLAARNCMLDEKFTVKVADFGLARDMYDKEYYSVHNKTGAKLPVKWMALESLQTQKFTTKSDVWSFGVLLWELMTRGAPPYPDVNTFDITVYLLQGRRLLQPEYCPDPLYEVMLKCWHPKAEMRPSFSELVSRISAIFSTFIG

Take `Cn1cc2cc(C(F)(F)c3nnc4ccc(-c5cnn(CC6COCO6)c5)nn34)c(F)cc2n1` (stereo not drawn) [Example 41]: the results for the IC50 in assay [1] and in assay [2] were 348 nM and 127 nM, respectively.

Regarding `CNS(=O)(=O)c1ccc(-c2ccc3nnc(C(F)(F)c4cc5cn(C)nc5cc4F)n3n2)cc1F` [Example 42], the results for the IC50 in assay [1] and in assay [2] were 406 nM and 136 nM, respectively.

On to `Cn1cc2cc(C(F)(F)c3nnc4ccc(-c5cc(F)c6c(c5)CNC6=O)nn34)c(F)cc2n1` [Example 43], for which the values for the 50% inhibitory concentration (IC50) in assay [1] and in assay [2] were 35.2 nM and 23.3 nM, respectively.

As to `Cn1cc2cc(C(F)(F)c3nnc4ccc(-c5cnn(C6CC6)c5)nn34)c(F)cc2n1` [Example 44], the IC50 in assay [1] came to 7.8 nM; in assay [2] it was 31.6 nM.

In the case of `Cn1cc2cc(C(F)(F)C3(Cl)NN=C4C=CC(c5cnn(C6CC6)c5)=CN43)c(F)cc2n1` (stereo not drawn) [Example 45], the concentration for half-maximal inhibition (IC50) is 270 nM in assay [1] and 274 nM in assay [2].

`Cn1cc2cc(C(F)(F)c3nnc4ccc(-c5cnn(C6CC6)c5)cn34)c(F)cc2n1` [Example 46]: the IC50 in assay [1] was determined as 139 nM; in assay [2], 159 nM.

As for `Cn1cc2cc(C(F)(F)c3nnc4ncc(-c5cnn(C6CC6)c5)cn34)c(F)cc2n1` [Example 47], the concentration for half-maximal inhibition (IC50) was found to be 22 nM in assay [1] and 38 nM in assay [2].

As for `Nc1nc2cc(F)c(Cc3nnc4ccc(-c5cnn(C6CC6)c5)nn34)cc2s1` [Example 49], the IC50 in assay [1] came out at 65 nM; in assay [2] it was 38 nM.

For `Fc1cc2n[nH]cc2cc1C(F)(F)c1nnc2ccc(-c3cnn(C4CC4)c3)nn12` [Example 50], the IC50 in assay [1] was 527 nM; in assay [2], 1440 nM.
